The results in this text go back to patent US20170157145A1, “SUBSTANCE INDUCING EXPRESSION OF PARKIN POLYPEPTIDE AND USE THEREOF” (Samsung Electronics Co., Ltd., priority 2015, published 2017).

One assay deals with human Parkin promoter. Briefly: Parkin promoter luciferase screening in HEK-Parkin-Luc cell line. The assay is classed as cell-based. The following applies: relative to DMSO, 10 μM, about 24 hours. On the procedure:
To identify compounds capable of inducing expression of Parkin protein at the promoter level, a pGL3-Parkin-Luc DNA construct was used (Cell Death and Differentiation, vol. 18, No. 5, p. 769-782, 2011.05 ). This construct was used to quantify the activity of human Parkin promoter by luminescence intensity due to a luciferase expression level. As a cell line, a human embryonic kidney cell line HEK-293T (ATCC), which maintains Parkin protein activity at a low level, was prepared.
Thereafter, 5 μg/ml of puromycin (Calbiochem) was added to the HEK-293T cells, and cultured at 37° C. and 5 % CO2 for about 21 days. Every 3 days, the medium was replaced by a fresh medium containing 5 μg/ml of puromycin. Stable cell lines were established from single colonies of the cultured cell line. A cell line showing stable luciferase activity was obtained, and designated as HEK-Parkin-Luc, which was used to screen for compounds capable of activating the Parkin promoter. […]
Then, the cultured cells were washed with PBS, and a luminescent substrate (Promega) was added. Luminescence intensity of the cells was measured using a microplate luminometer (Berthold Technologies), and luciferase activity relative to a negative control of 0.1% DMSO was calculated.

The subject of the next assay is Parkin protein. Briefly: Immunoblotting of Parkin protein in HEK 293T cells. Type of assay: cell-based, human. Particulars: Parkin protein relative to DMSO, 10 μM, about 48 hours. The procedure: Among the 44 compounds selected in the initial screen described in 2, 22 compounds were examined to determine whether they increased expression of Parkin protein when they are applied to an HEK 293T cell line.
10 μM of each compound was added to the HEK 293T cells, and cultured at 37° C. and 5% CO2 for about 48 hours. The cultured cells were collected, and proteins were obtained from the cells. Anti-Parkin protein antibody (Cell signaling) and anti-beta actin antibody (Sigma-Aldrich) were used to perform immunoblotting, and an image of the immunoblotting is shown in FIG. 1.
For orientation: Immunoblotting shows a protein as a band on a membrane.

A further assay has as its system HEK 293T cell line. Briefly: Cell protecting effect against H2O2 oxidative stress cytotoxicity (Alamar blue assay). Type of assay: cell-based, human. The following applies: cytotoxicity inhibition ratio relative to DMSO; 10 μM 48 hours, then H2O2 500 μM 90 minutes. On the procedure:
A cytotoxicity-induced model by application of oxidative stress to the HEK 293T cell line was used. 10 μM of each of the 22 compounds was applied to the HEK cell line and cultured at 37° C. and 5% CO2 for about 48 hours. H2O2 (Sigma-Aldrich, final concentration of 500 μM) was applied to the cultured cells and cultured at 37° C. and 5% CO2 for about 90 minutes. Thereafter, cells were collected and cytotoxicity was examined by Alamar blue® assay (Thermo Fisher Scientific).
The level of H2O2-induced cytotoxicity in cells treated with each of the 22 compounds was compared with cells treated with DMSO alone. 16 compounds having a significant cytotoxicity inhibitory effect (P<0.05) against oxidative stress were selected.
In Table 1, the values of luciferase activity and immunoblotting were expressed relative to DMSO, and the cell protecting effect (%) represents a cytotoxicity inhibition ratio, relative to DMSO. […] Further, “n” represents the number of experiments that were repeated, and “s.e.” represents standard error.
(In general: Alamar Blue is a resazurin reagent that responds to reducing activity.)

The subject of the next assay is parkin. Nature of the assay: Parkin expression in mouse brain subregions after i.p. hydrocortisone (immunoblot). The assay is classed as in vivo. Particulars: striatum, ventral midbrain and cerebellum; i.p. 7 days; vs vehicle treated control mice; normalized to β-actin. On the procedure: The head skin was closed by suturing and wound healing and recovery were monitored following surgery. […] The brain was removed and processed for immunohistochemistry. […] After homogenization, samples were rotated at 4° C. for 30 min for complete lysis, then the homogenate was centrifuged at 52,000 rpm for 20 min, and the resulting fractions were collected. Protein levels were quantified using the BCA kit (Pierce) with BSA standards and analyzed by immunoblot. […] The densitometric analyses of the bands were performed using ImageJ (NIH, http://rsb.info.nih.gov/ij/).

For another assay, the system named is AIMP2. Nature of the assay: AIMP2 level in mouse striatum and ventral midbrain after i.p. hydrocortisone (western blot). Type of assay: in vivo. Particulars: hydrocortisone 7 days vs DMSO. On the procedure: The head skin was closed by suturing and wound healing and recovery were monitored following surgery. […] The brain was removed and processed for immunohistochemistry. […] After homogenization, samples were rotated at 4° C. for 30 min for complete lysis, then the homogenate was centrifuged at 52,000 rpm for 20 min, and the resulting fractions were collected. Protein levels were quantified using the BCA kit (Pierce) with BSA standards and analyzed by immunoblot.
The densitometric analyses of the bands were performed using ImageJ (NIH, http://rsb.info.nih.gov/ij/).

Assay [1] concerns tyrosine hydroxylase (TH)-positive dopaminergic neurons in the substantia nigra pars compacta. Nature of the assay: 6-OHDA-induced PD mouse model, stereological count of TH-positive dopaminergic neurons. The assay is classed as in vivo. Particulars: hydrocortisone pretreatment 0.4 mg/kg i.p. daily; 6-OHDA 8 ug intrastriatal on day 7. The procedure:
Hydrocortisone was given to mice intraperitoneally. Hydrocortisone administration began on day 1 and continued for 11 days followed by stereological assessment of dopamine neuron counts. 6-OHDA intrastriatal injection was done on day 7. For stereotaxic injection of 6-hydroxy dopamine (6-OHDA, 8 ug), eight-week-old C57/BL6 mice treated either with hydrocortisone for 7 days or DMSO as a control were anesthetized with pentobarbital (60 mg/kg). An injection cannula (26.5 gauge) was applied stereotaxically into the striatum (anteroposterior, 0.5 mm from bregma; mediolateral, 2.0 mm; dorsoventral, 3.0 mm) unilaterally (applied into the right hemisphere). […] The head skin was closed by suturing and wound healing and recovery were monitored following surgery. […] Protein levels were quantified using the BCA kit (Pierce) with BSA standards and analyzed by immunoblot. […]
After scheduled treatments of hydrocortisone (0.4 mg/kg body weight, i.p. administration daily) in 6-OHDA intoxication models and control groups, animals were anesthetized with pentobarbital (50 mg/kg, intraperitoneal injection) and perfused with PBS followed by 4% paraformaldehyde (wt/vol in PBS). […] Total numbers of TH-positive neurons in substantia nigra pars compacta were counted using the Optical Fractionator probe of Stereo Investigator software (MicroBrightfield, Williston, Vt.). […]

In the assay on human Parkin promoter, `O=C(c1ccccc1)c1ccc2n1CCC2C(=O)O` (racemic) [Ketorolac tromethamine, (±)-5-benzoyl-2,3-dihydro-1H-pyrrolizine-1-carboxylic acid] displayed a Luciferase activity of 1.31. This compound also yielded an Immunoblotting with Parkin protein of 1.95. Further, the “Cell protecting effect (%)” value in the assay on HEK 293T cell line was found to be 21.49%.

Turning to `C[C@]12CCC(=O)C=C1CC[C@@H]1[C@@H]2[C@@H](O)C[C@@]2(C)[C@H]1CC[C@]2(O)C(=O)CO` [Hydrocortisone, (11β)-11,17,21-trihydroxypregn-4-ene-3,20-dione], the Luciferase activity in the assay with human Parkin promoter is recorded as 1.52. The same compound showed an Immunoblotting in the assay on Parkin protein of 1.11. The “Cell protecting effect (%)” value in the assay with HEK 293T cell line was 35.53%. Besides, in the assay on parkin, the “increase of parkin expression” value is recorded as “approximately two fold”. Also, the “downregulation of parkin's toxic substrate AIMP2” value in the assay on AIMP2 was determined as 20%. For the same compound, the “dopaminergic neuronal survival against 6-OHDA intoxication” value in assay [1] is given as “markedly enhanced dopaminergic neuronal survival”.
